IC50 data for two compounds are collected here from PMC3821638, “Molecular Cloning and Characterization of the Calcineurin Subunit A from Plutella xylostella” (International Journal of Molecular Sciences, 2013).

Read-outs that look alike come from different tables or passages of the source.

By IC50 is commonly meant the point on the concentration scale where inhibition reaches its midpoint.

This assay has as its target T1, Calcineurin subunit A (PxCNA), catalytic domain PxCNα (Plutella xylostella, UniProt V5U5Q7).
T1 construct: catalytic (phosphatase) domain CNA1–341 (PxCNα), His-tagged, expressed in E. coli
Put plainly: pNPP phosphatase assay with purified recombinant rPxCNα, dose-response and enzyme kinetics. The class given is biochemical.

T1 sequence (V5U5Q7 1-341): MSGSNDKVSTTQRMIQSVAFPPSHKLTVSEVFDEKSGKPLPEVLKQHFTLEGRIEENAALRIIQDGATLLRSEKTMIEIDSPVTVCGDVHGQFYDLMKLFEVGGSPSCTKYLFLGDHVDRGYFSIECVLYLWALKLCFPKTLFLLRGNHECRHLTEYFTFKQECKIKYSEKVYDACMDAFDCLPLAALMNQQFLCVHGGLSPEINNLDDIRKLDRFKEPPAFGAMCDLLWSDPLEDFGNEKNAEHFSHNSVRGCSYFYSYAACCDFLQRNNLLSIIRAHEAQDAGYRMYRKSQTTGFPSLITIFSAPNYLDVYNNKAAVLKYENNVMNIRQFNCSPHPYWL

Regarding `C[C@@]12C(=O)OC(=O)[C@]1(C)[C@H]1CC[C@@H]2O1` [CTD, cantharidin], the IC50 amounted to 77.6 µM. For `C=C1[C@@H](O)[C@@H]2O[C@]3(CC[C@H](/C=C/[C@@H](C)[C@@H]4CC(C)=C[C@@]5(O[C@H](C[C@@](C)(O)C(=O)O)CC[C@H]5O)O4)O3)CC[C@H]2O[C@@H]1[C@@H](O)C[C@H](C)[C@H]1O[C@@]2(CCCCO2)CC[C@H]1C` [OA, okadaic acid], the half-inhibitory concentration (IC50) (read-out: IC50) turned out to be 8.95 µM.
